From patent publication US6787354B2, “Methods for the early diagnosis of ovarian cancer” (The Board of Trustees of The University of Arkansas, priority 1997, dated 2004) come the findings set out here.

Ends that are not written are not given here.

The data set has as its system peptide-loaded lymphoblastoid cell lines (LCL). As to the kind of experiment: 51Cr-release cytotoxicity assay with peptide-specific CD8+ CTL. Type of data set: cell-based, human. The procedure:
Monocyte-derived dendritic cells were generated from peripheral blood drawn from normal adult donors of the appropriate HLA type. Adherent monocytes were cultured in AIM-V (Gibco-BRL) supplemented with GM-CSF and IL-4 according to standard techniques (Santin et al, 2000, 2001). After 5-6 days, dendritic cell maturation was induced by addition of PGE2, IL-1β and TNFα for a further 48 h.
Mature dendritic cells were loaded with peptide (2×10^6 dendritic cells with 50 μg/ml peptide in 1 ml serum-free AIM-V medium for 2 h at 37° C.) and washed once prior to culture with 1×10^6/ml peripheral blood mononuclear cells (PBMC) in AIM-V or AIM-V plus 5% human AB serum. The PBMC:DC ratio was between 20:1 and 30:1. After 7 days, responder T cells were restimulated with peptide-loaded, irradiated autologous dendritic cells or peripheral blood mononuclear cells at responder:stimulator ratios between 10:1 and 20:1 or 1:1 and 1:10 respectively. At this point, cultures were supplemented with recombinant human IL-2 (10-100 U/ml), and fed with 50-75% changes of fresh medium plus IL-2 every 2-4 days. T cell lines were established and maintained by peptide restimulation every 14-21 days. Responder CD8^+T cells were purified by positive selection with anti-CD8-coupled magnetic beads (Dynal, Inc.) after the 2nd or 3rd antigen stimulation.
Peptide-specific cytotoxicity was tested in standard 5-6 h microwell ^51Cr-release assays (Nazaruk et al, 1998). Autologous EBV-transformed lymphoblastoid cell lines (LCL) were loaded with peptide (50 μg/ml, 1 h at 37° C.) and subsequently ^51Cr-labeled (50 μCi in 200-300 μl, 1 h at 37° C.). Peptide-loaded ^51Cr-labeled LCL were incubated with CD8^+T cells at effector-target ration between 5:1 and 1.25:1. Cytotoxicity was recorded as percentage ^51Cr released into culture supernatants.

Turning to GRWPWQVSL [GRWPWQVSL], the “Blocking of cytotoxicity against peptide-loaded LCL by MAb specific for a non-polymorphic HLA class I determinant” value is given as “could be blocked”.
As for SLGRWPWQV [SLGRWPWQV], the “Blocking of cytotoxicity against peptide-loaded LCL by MAb specific for a non-polymorphic HLA class I determinant” value was “could be blocked” and the “Blocking of cytotoxicity by MAb specific for HLA A2.1” value is given as “blocked”.
